# Measurements taken from article PMC11491487 (Nature Communications, 2024).
# “And” between values parts separate entries of the source, which are not always exact repeats. Identical values can stand only once. Like-named read-outs stand apart in the source and are kept apart here.
# What was measured:
# chiRyR [1] = biological target: T1, chiRyR (Oryctolagus cuniculus, UniProt P11716, C4657I/F4564Y/L4792S/R4563K); assay: biochemical; assay type: biochemical, rabbit
# chiRyR-I4657M/G4819E = chiRyR-I4657M/G4819E (Oryctolagus cuniculus, UniProt P11716, C4657M/F4564Y/G4819E/L4792S/R4563K); assay: biochemical; assay type: biochemical, rabbit; settings: for [3H]ryanodine binding (B/Bmax): 1 μM TET
# rRyR1 = rRyR1 (Oryctolagus cuniculus, UniProt P11716); assay: time-lapse [Ca2+]ER fluorescence assay, HEK293 cells; assay type: cell-based, rabbit
# chiRyR [2] = biological target: T1, chiRyR; assay: cell-based; set-up: species or system rabbit
# Sf RyR = Sf RyR (Spodoptera frugiperda, UniProt A0A4P8L6R5); assay: time-lapse [Ca2+]ER fluorescence assay, HEK293 cells; assay type: cell-based
# [3] = Ca2+-dependent [3H]ryanodine binding, mean ± SD, n=4
# [4] = Ca2+-dependent [3H]ryanodine binding, mean ± SD, n=4, read-out: EC50 values for Ca2+
smiles,measurement,setting,value
[Ca+2] [Ca2+],IC50,chiRyR [1]; [3],670 ± 370 µM
same,EC50,chiRyR [1]; [4],5 ± 1.1 µM
same,IC50,chiRyR-I4657M/G4819E; [3],590 ± 190 µM
same,EC50,chiRyR-I4657M/G4819E; [4],4.4 ± 2.4 µM
"CNC(=O)c1cc(C#N)cc(C)c1NC(=O)c1cc(Cn2nnc(C(F)(F)F)n2)nn1-c1ncccc1Cl [TET, tetraniliprole]",EC50,chiRyR [1],0.0111 ± 0.0009 µM
same,promotion of [3H]ryanodine binding,chiRyR [1]; 1 μM TET,promote
same,[3H]ryanodine binding (B/Bmax),"chiRyR [1]; 1 μM TET, pCa 2.01",0.5896 and 0.5427 and 0.6286 and 0.5623
same,[3H]ryanodine binding (B/Bmax),"chiRyR [1]; 1 μM TET, pCa 2.54",0.4881 and 0.5388 and 0.5232 and 0.4217
same,[3H]ryanodine binding (B/Bmax),"chiRyR [1]; 1 μM TET, pCa 3.01",0.2889 and 0.3787 and 0.4022 and 0.2616
same,[3H]ryanodine binding (B/Bmax),"chiRyR [1]; 1 μM TET, pCa 3.52",0.2967 and 0.3397 and 0.4256 and 0.2811
same,[3H]ryanodine binding (B/Bmax),"chiRyR [1]; 1 μM TET, pCa 3.89",0.2811 and 0.328 and 0.3319 and 0.2616
same,[3H]ryanodine binding (B/Bmax),"chiRyR [1]; 1 μM TET, pCa 4.5",0.2889 and 0.2655 and 0.3319 and 0.285
same,[3H]ryanodine binding (B/Bmax),"chiRyR [1]; 1 μM TET, pCa 5",0.3163 and 0.2538 and 0.3046 and 0.2694
same,[3H]ryanodine binding (B/Bmax),"chiRyR [1]; 1 μM TET, pCa 5.43",0.3436 and 0.285 and 0.2889 and 0.367
same,[3H]ryanodine binding (B/Bmax),"chiRyR [1]; 1 μM TET, pCa 6.01",0.2772 and 0.2421 and 0.3319 and 0.3085
same,[3H]ryanodine binding (B/Bmax),"chiRyR [1]; 1 μM TET, pCa 6.55",0.3358 and 0.246 and 0.3826
same,[3H]ryanodine binding (B/Bmax),"chiRyR [1]; 1 μM TET, pCa 6.98",0.2616 and 0.2694 and 0.2382 and 0.2108
same,F/F0,rRyR1; TET 0.01 uM,0.9832 and 0.9899 and 0.9753
same,F/F0,rRyR1; TET 0.1 uM,0.9793 and 0.9852 and 0.9641
same,F/F0,rRyR1; TET 0.3 uM,0.9696 and 0.952 and 0.9539
same,F/F0,rRyR1; TET 1 uM,0.9135 and 0.9295 and 0.9254
same,F/F0,rRyR1; TET 3 uM,0.8107 and 0.8058 and 0.7756
same,F/F0,rRyR1; TET 10 uM,0.34 and 0.3602 and 0.3556
same,F/F0,rRyR1; TET 30 uM,0.3168 and 0.2562 and 0.2448
same,F/F0,rRyR1; TET 100 uM,0.2045 and 0.2471 and 0.2529
same,EC50,"rRyR1; diamide insecticides, n = 3, read-out: EC50",7.6 µM
same,EC50,chiRyR [2],0.0461 µM
same,F/F0,chiRyR [2]; TET 1e-5 uM,0.9259 and 0.9674 and 0.9677
same,F/F0,chiRyR [2]; TET 0.001 uM,0.7877 and 0.806 and 0.7759
same,F/F0,chiRyR [2]; TET 0.01 uM,0.2917 and 0.2699 and 0.2537
same,F/F0,chiRyR [2]; TET 0.1 uM,0.2632 and 0.2374 and 0.2313
same,F/F0,chiRyR [2]; TET 0.5 uM,0.2569 and 0.2462 and 0.2329
same,F/F0,chiRyR [2]; TET 1 uM,0.2399 and 0.24 and 0.2303
same,F/F0,chiRyR [2]; TET 10 uM,0.2639 and 0.2436 and 0.2393
same,F/F0,chiRyR [2]; TET 50 uM,0.3123 and 0.2617 and 0.3022
same,EC50,Sf RyR,0.175 µM
same,F/F0,Sf RyR; TET 1e-5 uM,0.9606 and 0.9752 and 0.9813
same,F/F0,Sf RyR; TET 0.001 uM,1.004 and 1.002 and 1.001
same,F/F0,Sf RyR; TET 0.01 uM,0.3097 and 0.3094 and 0.2868
same,F/F0,Sf RyR; TET 0.1 uM,0.2582 and 0.2663 and 0.2776
same,F/F0,Sf RyR; TET 0.5 uM,0.268 and 0.2944 and 0.2596
same,F/F0,Sf RyR; TET 1 uM,0.2734 and 0.2934 and 0.2867
same,F/F0,Sf RyR; TET 10 uM,0.2774 and 0.2809 and 0.2932
same,F/F0,Sf RyR; TET 50 uM,0.2939 and 0.2698 and 0.3129
same,EC50,chiRyR-I4657M/G4819E,87.8 ± 6.4 µM
same,[3H]ryanodine binding (B/Bmax),chiRyR-I4657M/G4819E; pCa 3.52,0.1264 and 0.1119 and 0.1409 and 0.1015
same,[3H]ryanodine binding (B/Bmax),chiRyR-I4657M/G4819E; pCa 3.89,0.1367 and 0.1222 and 0.1015
same,[3H]ryanodine binding (B/Bmax),chiRyR-I4657M/G4819E; pCa 4.5,0.1326 and 0.1367 and 0.1347 and 0.1885
same,[3H]ryanodine binding (B/Bmax),chiRyR-I4657M/G4819E; pCa 5,0.172 and 0.0953 and 0.1139 and 0.1243
same,[3H]ryanodine binding (B/Bmax),chiRyR-I4657M/G4819E; pCa 5.43,0.04765 and 0.0663 and 0.05179 and 0.06008
